From patent US7335735B2, “Intracellular estradiol binding protein” (Cedars-Sinai Medical Center, priority 2003, dated 2008)
“Also recorded” adds a separate entry of the source.

Legend:
hsp27 = test: Western blot analysis of hsp27 expression in wild-type breast cells; format: cell-based, Old World primate; details: wild-type control cells, Western blot with anti-hsp27 antibody
[1] = system: ERE-directed transactivation; test: ERE-promoter-reporter luciferase assay, transient co-transfection; format: cell-based, Old World primate
glucocorticoid receptors = details: New World primate cells; cited from earlier work
ERE = test: Electrophoretic mobility shift analysis (EMSA) with idealized ERE as probe; format: binding; details: postnuclear extracts from OWP-IEBP stable transfectant clone 1, recombinant ERα
Method: This is believed to be due, at least in part, to enhanced binding of estrogens. To determine whether IEBP also functions as a direct competitor for ERE-binding, the inventors carried out electrophoretic mobility shift analyses (EMSAs) using an idealized ERE as a probe with recombinant ERα and/or postnuclear extracts from OWP-IEBP stable transfectant clone 1 as binding proteins. […] To assess this possibility, coimmunoprecipitation was performed by using anti-ERα and anti-hsp27 antibodies. Antihuman ERα antibodies were used to immunoprecipitate […] proteins in postnuculear extracts of both wild-type and IEBP-stably-transfected cells. The immunoprecipitates were subjected to Western blot analysis by using hsp27 antibodies. Data confirmed association between ERα and hsp27. Similar results were also obtained following initial immunoprecipitation with hsp27, and subsequent ERα blotting.

[2] = system: ERE-directed transactivation; test: ERE luciferase reporter assay in cells stably transfected with IEBP; format: cell-based, Old World primate; details: stable transfectants compared with wild-type cells
Method: E2-responsive OWP breast cells from cell line 6299 were incubated with 5.0 ug pcDNA3.1/v5-His-TOPO IEBP plasmid in LIPOTAXI solution for 5 hours followed by the addition of equal volume of 20% FCS-supplemented medium. After incubation overnight, cells were split (1:10 ratio) and incubated with fresh medium containing 500 ug/ml of the geneticin-selective antibiotic G418 sulfate (Life Technology; Grand Island, N.Y.). This medium was replaced every 3-4 days, until stable colonies formed. Single colonies were picked, transferred into a new dish, and incubated with medium containing selection antibiotic G418 until confluence for further study.
Experiments were therefore carried out to clarify whether the overexpression of IEBP antagonized, facilitated, or did nothing to estrogen-induced transactivation. Estrogen-responsive Old World primate cells were transiently co-transfected with IEBP cDNA and an ERE-promoter-reporter construct. After transfection, ERE-directed luciferase activity was reduced 50% compared to vector alone-transfected Old World primate cells. […] Similar results were also obtained following stable transfection of IEBP into Old World primate cells. Increased expression of IEBP in these cells was confirmed by Western blot analyses using an anti-hsp27 antibody.

C[C@]12CC[C@@H]3c4ccc(O)cc4CC[C@H]3[C@@H]1CC[C@@H]2O [E2, 17β-estradiol]
hsp27 expression (hsp27): stimulated hsp27 expression in a dose-dependent fashion; also recorded: strongly increased hsp27 expression
effect on ERE-mediated transcription ([1]; transient transfectants, E2 pre-treatment in control cells): stimulated ERE-mediated transcription

FKBP51: heat-shock protein (hsp)90-associated FK 506-binding immunophilin
inhibition of ligand binding to glucocorticoid receptors (glucocorticoid receptors): 74%

B1: IEBP: novel hsp27-related intracellular estradiol binding protein from New World primate B95-8 cells, SEQ ID NO:1 (protein, listed as Homo sapiens)
chain: MTERHVPFSLLQSPSWDPFRDWYPHSHLFDQAFGMPRLPEEWSQWFGTSSWPGYVRPLPPTTVEGPAVAAPAYSRALNQQLSSGVSETADRWRVSLDVNHFAPEELTVKTKDGVVEITGKHEERQDEHGFISRCFTRKYSLPPGVDPTQVSPSLSPEGTLTVDAPMSKPATQSNEITIPVTFESRAQLGGPEAAKSDRSAAK
binding to ERE and competition with ERα for ERE (ERE): neither bound to ERE nor competed with the ERα for binding to ERE
decrease of ERE luciferase reporter activity [2]: 2-3 fold
reduction of ERE-directed luciferase activity ([1]; transient co-transfection of cDNA and ERE-promoter-reporter construct, compared to vector alone-transfected Old World primate cells): 50%
